Assay results reported in US5733754A, “Enzyme and its use in preparing (S)-pipecolic acid” (Chiroscience Limited, priority 1993, dated 1998).

Experiments:
[1] = tested on: N-acyl-pipecolic acid acylase; experiment: Alternative substrates: activity of semi-purified enzyme preparation on N-acetylamino-acids; type: biochemical, Alcaligenes denitrificans; conditions: 1 ml substrate 40 g/l + 0.5 ml enzyme + 0.5 ml 100 mM Tris buffer pH 7.5; 24-25° C., 1 hour
Procedure: The sonicate supernatants were then used in the following biotransformation reactions. To 1 ml of the sonicate supernatants, 1 ml of 40 g/l solution of N-acetyl-rac-pipecolate, pH 7, was added in the presence of 0.02% sodium azide. The biotransformation reaction mixtures were incubated with shaking for 48 h at 25° C., after which samples were removed and analysed by HPLC. HPLC analysis was done using a 15 cm Hichrom S50DS2 column with an isocratic mobile phase of 30% methanol:70% 10 mM potassium phosphate buffer, pH 3, at a flow rate of 1 ml/min. The injection volume was 20 μl and the detection was at 240 nm, total run time was 10 minutes. Prior to loading on to the column, the sample was diluted 20-fold in the HPLC mobile phase and centrifuged. The analyses as shown by this procedure provided values of residual substrate concentrations. A substrate control was run in parallel with the sample reactions.
(§1) The activity of a semi-purified enzyme preparation, as described in Example 4, was tested on a range of alternative substrates. Various N-acetylamino-acid solutions were prepared at a concentration of 40 g/l in 100 mM Tris buffer at pH 7.5. Reactions were then set up using 1 ml of reaction substrate plus 0.5 ml enzyme plus 0.5 ml 100 mM Tris buffer, pH 7.5. The reaction mixtures were shaken at 24°-25° C. for 1 hour before being analysed for amino-acid formation. The extent of reaction for the N-acetylpipecolic acid and N-acetylproline biotransformations was determined using the HPLC methodology described in Example 1. The extent and enantioselectivity of the other biotransformations was determined using a Nucleosil Chiral-1 (ET250/8/4 with a buffer phase of 1 mM copper acetate at pH 5 in 5% methanol, and a flow rate of 0.8 ml/min, with detection at 254 nm. Samples were diluted 100-fold and areas compared to relevant standards.

[2] = tested on: N-acylamino-acid acylase of EP-A-0416282; conditions: cited from earlier work
[3] = tested on: N-acyl-pipecolic acid acylase (amino acylase); experiment: Alternative buffers: effect of high phosphate on the biotransformation; type: biochemical, Alcaligenes denitrificans; conditions: for Amino-acid formed: pH 7.5
Procedure: as §1
The acylase disclosed in EP-A-0416282 is inhibited by reaction in buffers containing phosphate at high concentrations. The effect of high phosphate on the biotransformation was determined using a similar methodology to that described in Example 6.

[4] = tested on: N-acetyl-pipecolic acid acylase activity; experiment: Use of inducer: flask cultures with additive, acylase activity of the cell extract; type: cell-based, Alcaligenes denitrificans; conditions: for Specific (activity) / Volumetric Activity: additive in growth medium (5 g/l), extract used in 24 hour biotransformation of 20 g/l N-acetyl-(R,S)-pipecolic acid, 1U = release of 1 μmole pipecolic acid per minute
Procedure: It has been observed by other workers that an inducer must be added to the fermentation medium to obtain N-acyl-amino-acid acylase activity. This adds to the cost of producing the enzyme. Flask cultures were set up to determine the requirement for an inducer. Medium used was similar to that described in Table 1, except that the N-acetyl-L-phenylalanine was omitted, 1 g/l yeast extract was added and the following 4 variations were set up.
The final pH of all flasks was adjusted to pH 7.0 and a total of 50 ml added to 500 ml conical flasks. Following inoculation, the flasks were incubated at 25° C. with shaking for 19 hours. The cells were then collected by centrifugation, resuspended in 10 mM phosphate buffer, pH 7 and lysed by sonication. The released enzyme extract was then used in a 24 hour biotransformation of 20 g/l N-acetyl-(R,S)-pipecolic acid.
1U = release of 1 μmole pipecolic acid per minute

CC(=O)NC(Cc1ccc(C#N)cc1)C(=O)O (racemic) [N-acetyl-(R,S)-4-cyanophenylalanine]
Amino-acid formed [1]: 8.3 g/L

CC(=O)NC(C)C(=O)O (racemic) [N-acetyl-(R,S)-alanine]
Amino-acid formed [1]: 3.4 g/L | activity of the enzyme against substrate ([2]; enzyme of EP-A-0416282): non-detectable

CC(=O)NC(CCC(=O)O)C(=O)O (racemic) [N-acetyl-(R,S)-glutamic acid]
Amino-acid formed [1]: 0.2 g/L

CC(=O)NC(Cc1ccccc1)C(=O)O (racemic) [N-acetyl-(R,S)-phenylalanine]
Amino-acid formed [1]: 5.3 g/L | activity of the enzyme against substrate ([2]; enzyme of EP-A-0416282): non-detectable

CC(=O)N1CCCCC1C(=O)O (racemic) [N-acetyl-(R,S)-pipecolic acid]
Amino-acid formed ([3]; 100 mM Phosphate): 6.3 g/L | Amino-acid formed ([3]; 100 mM Tris): 6.3 g/L | Amino-acid formed [1]: 6.3 g/L | Specific (activity) [4]: 0.086 U/mg protein | Volumetric Activity [4]: 0.017 U/ml

O=C[C@H](O)[C@@H](O)[C@H](O)[C@H](O)CO [Glucose]
N-acetyl-pipecolic acid acylase activity of the flask ([4]; additive 5 g/l in growth medium): no N-acetyl-pipecolic acid acylase activity | Volumetric Activity [4]: 0.00 U/ml

CC(=O)N1CCC[C@H]1C(=O)O [N-acetyl-(S)-proline]
Amino-acid formed ([3]; 100 mM Phosphate): 3.2 g/L | Amino-acid formed ([3]; 100 mM Tris): 3.2 g/L | Amino-acid formed [1]: 3.2 g/L | Specific (activity) [4]: 0.033 U/mg protein | Volumetric Activity [4]: 0.042 U/ml

CC(=O)NCCCC[C@H](N)C(=O)O [εN-acetyl-(S)-lysine]
Amino-acid formed [1]: 0.0 g/L

N-acyl-pipecolic acid
activity of the enzyme relative to its activity on N-acetyl-proline ([2]; enzyme of EP-A-0416282): less than 5%

phosphate
inhibitory effect on the amino acylase ([3]; final phosphate concentration equal to or greater than 75 mM): no significant inhibitory effect | inhibition of the acylase by buffer ([2]; buffers containing phosphate at high concentrations): inhibited
